Experimental data: patent US11083196B2, “Microbiocidal oxadiazole derivatives” (SYNGENTA PARTICIPATIONS AG, priority 2016, dated 2021)

Legend:
[1] = test system: Glomerella lagenarium (Colletotrichum lagenarium); assay: Fungicidal activity against Glomerella lagenarium (Colletotrichum lagenarium), liquid culture / cucumber / preventative (anthracnose); assay type: cell-based; conditions: Colletotrichum orbiculare, liquid culture (PDB), growth inhibition measured photometrically 3-4 days after application, compared to untreated control
Description: Mycelia fragments or conidia suspensions of a fungus, prepared either freshly from liquid cultures of the fungus or from cryogenic storage, are directly mixed into nutrient broth. DMSO solutions of the test compound (max. 10 mg/ml) is diluted with 0.025% Tween20 by a factor of 50 and 10 μl of this solution is pipetted into a microtiter plate (96-well format). The nutrient broth containing the fungal spores/mycelia fragments is then added to give an end concentration of the tested compound. The test plates are incubated in the dark at 24° C. and 96% relative humidity. The inhibition of fungal growth is determined photometrically after 2 to 7 days, depending on the pathosystem, and percent antifungal activity relative to the untreated check is calculated. Conidia of the fungus from cryogenic storage are directly mixed into nutrient broth (PDB potato dextrose broth). After placing a (DMSO) solution of test compound into a microtiter plate (96-well format), the nutrient broth containing the fungal spores is added. The test plates are incubated at 24° C. and the inhibition of growth is measured photometrically 3-4 days after application.

[2] = test system: Puccinia recondita f. sp. tritici; assay: Fungicidal activity against Puccinia recondita f. sp. tritici / wheat / leaf disc preventative (brown rust); assay type: in vivo; conditions: foliar, 168 h, wheat leaf segments cv. Kanzler, inoculated 1 day after application, assessed 7-9 days after application, compared to untreated control
Description: Leaf disks or leaf segments of various plant species are cut from plants grown in a greenhouse. The cut leaf disks or segments are placed in multiwell plates (24-well format) onto water agar. The leaf disks are sprayed with a test solution before (preventative) or after (curative) inoculation. Compounds to be tested are prepared as DMSO solutions (max. 10 mg/ml) which are diluted to the appropriate concentration with 0.025% Tween20 just before spraying. The inoculated leaf disks or segments are incubated under defined conditions (temperature, relative humidity, light, etc.) according to the respective test system. A single evaluation of disease level is carried out 3 to 14 days after inoculation, depending on the pathosystem. Percent disease control relative to the untreated check leaf disks or segments is then calculated. Wheat leaf segments cv. Kanzler are placed on agar in multiwell plates (24-well format) and sprayed with the formulated test compound diluted in water. The leaf disks are inoculated with a spore suspension of the fungus 1 day after application. The inoculated leaf segments are incubated at 19° C. and 75% rh under a light regime of 12 h light/12 h darkness in a climate cabinet and the activity of a compound is assessed as percent disease control compared to untreated when an appropriate level of disease damage appears in untreated check leaf segments (7-9 days after application).

melting point	Structure (SMILES)	inhibition of growth at 20 ppm [1]	pest or weed control at 200 ppm [2]
175 to 180 °C	O=C(Nc1ccc(-c2ccc(-c3noc(C(F)(F)F)n3)cc2)cn1)C1CC1 [Compound D-11, N-[5-[4-[5-(trifluoromethyl)-1,2,4-oxadiazol-3-yl]phenyl]-2-pyridyl]cyclopropane carboxamide]	–	–
125 to 130 °C	O=C(Nc1cccc(-c2ccc(-c3noc(C(F)(F)F)n3)cc2)n1)C1CC1 [Compound D-14, N-[6-[4-[5-(trifluoromethyl)-1,2,4-oxadiazol-3-yl]phenyl]-2-pyridyl]cyclopropane carboxamide]	–	–
120 to 125 °C	CCNc1ccc(-c2ccc(-c3noc(C(F)(F)F)n3)cc2)cn1 [Compound D-20, N-ethyl-5-[4-[5-(trifluoromethyl)-1,2,4-oxadiazol-3-yl]phenyl]pyridin-2-amine]	–	–
–	COC(=O)C1(c2ccc(-c3noc(C(F)(F)F)n3)cc2)C(C)=C(C#N)C(=O)N1C (stereo not drawn) [Compound A-41, methyl 4-cyano-1,3-dimethyl-5-oxo-2-[4-[5-(trifluoromethyl)-1,2,4-oxadiazol-3-yl]phenyl]pyrrole-2-carboxylate]	≥ 80%	–
130 to 135 °C	CCNc1cc(-c2ccc(-c3noc(C(F)(F)F)n3)cc2)ccn1 [Compound D-9, N-ethyl-4-[4-[5-(trifluoromethyl)-1,2,4-oxadiazol-3-yl]phenyl]pyridin-2-amine]	–	–
75 to 80 °C	Fc1cccc(-c2ccc(-c3noc(C(F)(F)F)n3)cc2)n1 [Compound D-5, 3-[4-(6-fluoro-2-pyridyl)phenyl]-5-(trifluoromethyl)-1,2,4-oxadiazole]	≥ 80%	–
125 to 130 °C	O=C(Nc1cccc(-c2ccc(-c3noc(C(F)(F)F)n3)cc2)n1)C(F)(F)F [Compound D-4, 2,2,2-trifluoro-N-[6-[4-[5-(trifluoromethyl)-1,2,4-oxadiazol-3-yl]phenyl]-2-pyridyl]acetamide]	≥ 80%	–
154.4 to 158.5 °C	Cl.FC(F)(F)c1nc(-c2ccc(C3CCCN3)cc2)no1 (stereo not drawn) [Compound A-34, 3-(4-pyrrolidin-1-ium-2-ylphenyl)-5-(trifluoromethyl)-1,2,4-oxadiazole; chloride]	–	≥ 80%
115 to 120 °C	FC(F)(F)c1nc(-c2ccc(-c3cccc(Cl)n3)cc2)no1 [Compound D-22, 3-[4-(6-chloro-2-pyridyl)phenyl]-5-(trifluoromethyl)-1,2,4-oxadiazole]	–	–
94 to 96 °C	FC(F)(F)c1nc(-c2ccc(N3CCCCO3)cc2)no1 [Compound B-1, 2-[4-[5-(trifluoromethyl)-1,2,4-oxadiazol-3-yl]phenyl]oxazinane]	–	–
200 to 205 °C	CCNC(=O)Nc1cccc(-c2ccc(-c3noc(C(F)(F)F)n3)cc2)n1 [Compound D-1, 1-ethyl-3-[6-[4-[5-(trifluoromethyl)-1,2,4-oxadiazol-3-yl]phenyl]-2-pyridyl]urea]	–	–
150 to 155 °C	O=C(C1CC1)N(C(=O)C1CC1)c1ccc(-c2ccc(-c3noc(C(F)(F)F)n3)cc2)cn1 [Compound D-10, N-(cyclopropanecarbonyl)-N-[5-[4-[5-(trifluoromethyl)-1,2,4-oxadiazol-3-yl]phenyl]-2-pyridyl]cyclopropane carboxamide]	–	–
65 to 69 °C	FC(F)(F)C1=NOC(c2ccc(-c3noc(C(F)(F)F)n3)cc2)C1 (stereo not drawn) [Compound A-14, 5-(trifluoromethyl)-3-[4-[3-(trifluoromethyl)-4,5-dihydroisoxazol-5-yl]phenyl]-1,2,4-oxadiazole]	≥ 80%	–
143 to 146 °C	FC(F)(F)c1nc(-c2ccc(-c3cc(C4CC4)no3)cc2)no1 [Compound C-10, 3-[4-(3-cyclopropylisoxazol-5-yl)phenyl]-5-(trifluoromethyl)-1,2,4-oxadiazole]	–	–
190 to 195 °C	CCNC(=O)Nc1ccc(-c2ccc(-c3noc(C(F)(F)F)n3)cc2)cn1 [Compound D-2, 1-ethyl-3-[5-[4-[5-(trifluoromethyl)-1,2,4-oxadiazol-3-yl]phenyl]-2-pyridyl]urea]	–	–
195 to 200 °C	Nc1cc(-c2ccc(-c3noc(C(F)(F)F)n3)cc2)ccn1 [Compound D-18, 4-[4-[5-(trifluoromethyl)-1,2,4-oxadiazol-3-yl]phenyl]pyridin-2-amine]	–	–

melting point	Structure (SMILES)	inhibition of growth at 20 ppm [1]	pest or weed control at 200 ppm [2]
135 to 140 °C	FC(F)(F)c1nc(-c2ccc(-c3ccc(NC4CC4)nc3)cc2)no1 [Compound D-21, N-cyclopropyl-5-[4-[5-(trifluoromethyl)-1,2,4-oxadiazol-3-yl]phenyl]pyridin-2-amine]	–	–
135 to 140 °C	O=C(Nc1ccc(-c2ccc(-c3noc(C(F)(F)F)n3)cc2)cn1)C(F)(F)F [Compound D-13, 2,2,2-trifluoro-N-[5-[4-[5-(trifluoromethyl)-1,2,4-oxadiazol-3-yl]phenyl]-2-pyridyl]acetamide]	≥ 80%	–
–	FC(F)(F)c1nc(-c2ccc(C3CC(c4ccncc4)=NO3)cc2)no1 (stereo not drawn) [Compound A-49, 3-[4-[3-(4-pyridyl)-4,5-dihydroisoxazol-5-yl]phenyl]-5-(trifluoromethyl)-1,2,4-oxadiazole]	≥ 80%	–
142 to 143 °C	FC(F)(F)c1nc(-c2ccc(-c3nc(-c4cccnc4)cs3)cc2)no1 [Compound C-12, 3-[4-[4-(3-pyridyl)thiazol-2-yl]phenyl]-5-(trifluoromethyl)-1,2,4-oxadiazole]	–	–
140 to 145 °C	O=C(Nc1cc(-c2ccc(-c3noc(C(F)(F)F)n3)cc2)ccn1)C1CC1 [Compound D-17, N-[4-[4-(5-(triftuoromethyl)-1,2,4-oxadiazol-3-yl]phenyl]-2-pyridyl]cyclopropane carboxamide]	–	–
100 to 105 °C	FC(F)(F)c1nc(-c2ccc(-c3cccc(N4CCOCC4)n3)cc2)no1 [Compound D-24, 4-[6-[4-[5-(trifluoromethyl)-1,2,4-oxadiazol-3-yl]phenyl]-2-pyridyl]morpholine]	–	–
–	COc1ccccc1C1CC(c2ccc(-c3noc(C(F)(F)F)n3)cc2)=NO1 (stereo not drawn) [Compound A-48, 3-[4-[5-(2-methoxyphenyl)-4,5-dihydroisoxazol-3-yl]phenyl]-5-(trifluoromethyl)-1,2,4-oxadiazole]	≥ 80%	–
140 to 145 °C	FC(F)(F)c1nc(-c2ccc(-c3ccc(Cl)nc3)cc2)no1 [Compound D-27, 3-[4-(6-chloro-3-pyridyl)phenyl]-5-(trifluoromethyl)-1,2,4-oxadiazole]	–	–
95 to 100 °C	FC(F)(F)c1nc(-c2ccc(-c3ccnc(N4CCOCC4)c3)cc2)no1 [Compound D-25, 4-[4-[4-[5-(trifluoromethyl)-1,2,4-oxadiazol-3-yl]phenyl]-2-pyridyl]morpholine]	≥ 80%	–
180 to 185 °C	CCNC(=O)Nc1cc(-c2ccc(-c3noc(C(F)(F)F)n3)cc2)ccn1 [Compound D-3, 1-ethyl-3-[4-[4-[5-(trifluoromethyl)-1,2,4-oxadiazol-3-yl]phenyl]-2-pyridyl]urea]	–	–
120 to 125 °C	O=C(C1CC1)N(C(=O)C1CC1)c1cc(-c2ccc(-c3noc(C(F)(F)F)n3)cc2)ccn1 [Compound D-16, N-(cyclopropanecarbonyl)-N-[4-[4-[5-(trifluoromethyl)-1,2,4-oxadiazol-3-yl]phenyl]-2-pyridyl]cyclopropane carboxamide]	–	–
139 to 142 °C	FC(F)(F)c1nc(-c2ccc(C3CC(c4ccccc4)=NO3)cc2)no1 (stereo not drawn) [Compound A-50, 3-[4-(3-phenyl-4,5-dihydroisoxazol-5-yl)phenyl]-5-(trifluoromethyl)-1,2,4-oxadiazole]	–	–
150 to 155 °C	FC(F)(F)c1nc(-c2ccc(-c3ccc(N4CCOCC4)nc3)cc2)no1 [Compound D-23, 4-[5-[4-[5-(trifluoromethyl)-1,2,4-oxadiazol-3-yl]phenyl]-2-pyridyl]morpholine]	–	–
120 to 125 °C	CCNc1cccc(-c2ccc(-c3noc(C(F)(F)F)n3)cc2)n1 [Compound D-8, N-ethyl-6-[4-[5-(trifluoromethyl)-1,2,4-oxadiazol-3-yl]phenyl]pyridin-2-amine]	≥ 80%	–
79 to 82 °C	FC(F)(F)c1nc(-c2ccc(C3CC(C4CCCCC4)=NO3)cc2)no1 (stereo not drawn) [Compound A-7, 3-[4-(3-cyclohexyl-4,5-dihydroisoxazol-5-yl)phenyl]-5-(trifluoromethyl)-1,2,4-oxadiazole]	≥ 80%	–
